Results: patent US8796250B2, “Diaryl ureas for diseases mediated by PDGFR” (Bayer Healthcare LLC, priority 2003, dated 2014)

target: T1, mouse PDGFR (PDGFR beta) (Mus musculus, UniProt P05622); experiment: Murine PDGFR FRET Biochemical Assay; conditions: 1 nM mouse PDGFR, 20 μM ATP, TR-FRET; read-out: IC50 in biochemical assay (inhibition of PDGFR)
T1 construct: made in house
T1 sequence (P05622 32-1098): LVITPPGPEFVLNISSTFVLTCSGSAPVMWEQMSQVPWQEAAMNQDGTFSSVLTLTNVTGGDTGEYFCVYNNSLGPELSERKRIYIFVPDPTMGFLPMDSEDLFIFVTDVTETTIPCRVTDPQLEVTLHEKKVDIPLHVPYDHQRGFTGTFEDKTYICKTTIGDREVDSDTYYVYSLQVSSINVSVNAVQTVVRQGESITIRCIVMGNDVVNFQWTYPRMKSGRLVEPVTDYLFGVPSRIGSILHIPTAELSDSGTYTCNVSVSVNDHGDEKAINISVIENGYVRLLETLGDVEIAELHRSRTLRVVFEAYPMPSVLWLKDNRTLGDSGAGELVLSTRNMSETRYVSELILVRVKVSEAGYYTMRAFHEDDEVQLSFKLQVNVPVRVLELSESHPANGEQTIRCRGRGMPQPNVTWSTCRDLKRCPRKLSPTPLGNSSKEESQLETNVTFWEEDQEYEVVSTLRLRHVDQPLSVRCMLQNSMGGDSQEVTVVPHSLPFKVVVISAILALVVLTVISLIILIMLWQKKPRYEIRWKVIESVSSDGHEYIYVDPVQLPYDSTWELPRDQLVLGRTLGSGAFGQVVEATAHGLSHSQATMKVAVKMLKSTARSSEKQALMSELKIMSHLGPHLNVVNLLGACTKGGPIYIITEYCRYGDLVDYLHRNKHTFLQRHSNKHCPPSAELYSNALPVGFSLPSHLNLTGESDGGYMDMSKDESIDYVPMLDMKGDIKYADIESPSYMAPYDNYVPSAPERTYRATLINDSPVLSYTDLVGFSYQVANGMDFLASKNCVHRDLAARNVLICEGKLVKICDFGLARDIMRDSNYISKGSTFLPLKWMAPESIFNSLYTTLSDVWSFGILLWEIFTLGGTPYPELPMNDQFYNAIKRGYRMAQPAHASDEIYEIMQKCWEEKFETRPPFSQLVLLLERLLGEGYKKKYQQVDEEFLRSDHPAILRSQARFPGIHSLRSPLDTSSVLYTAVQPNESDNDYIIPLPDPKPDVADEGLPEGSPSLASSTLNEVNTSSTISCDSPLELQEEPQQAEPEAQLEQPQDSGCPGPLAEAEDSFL
Source text: Reaction is initiated upon addition of enzyme.

| SMILES | IC50 [µM] |
| --- | --- |
| N#Cc1cc(Oc2ccc(NC(=O)Nc3ccc4c(c3)C(F)(F)OC(F)(F)O4)cc2)ccn1 [N-(6-(2,2,4,4-tetrafluoro-4H-benzo[1,3]dioxinyl))-N′-(4-(2-cyano-4-pyridyloxy)phenyl) urea] | < 10 |
| NC(=O)c1cc(Oc2ccc(NC(=O)Nc3ccc(Cl)c(C(F)(F)F)c3)cc2)cc[n+]1[O-] [N-(4-chloro-3-(trifluoromethyl)phenyl)-N′-(4-(1-hydroxy-2-carbamoyl-4-pyridyloxy)phenyl) urea] | < 10 |
| N#Cc1cc(Oc2ccc(NC(=O)Nc3ccc4c(c3)C(F)(F)OC(F)(F)O4)c(F)c2)ccn1 [N-(6-(2,2,4,4-tetrafluoro-4H-benzo[1,3]dioxinyl))-N′-(4-(2-cyano-4-pyridyloxy)-2-fluorophenyl) urea] | < 10 |

Next, values leading:

| IC50 [µM] | SMILES |
| --- | --- |
| < 10 | CNC(=O)c1cc(Oc2ccc(NC(=O)Nc3ccc(Cl)c(C(F)(F)F)c3)cc2)cc[n+]1[O-] [N-(4-chloro-3-(trifluoromethyl)phenyl)-N′-(4-(1-hydroxy-2-(N-methylcarbamoyl)-4-pyridyloxy)phenyl) urea] |
| < 10 | CNC(=O)c1cc(Oc2ccc(NC(=O)Nc3ccc(Cl)c(C(F)(F)F)c3)c(Cl)c2)ccn1 [N-(4-chloro-3-(trifluoromethyl)phenyl)-N′-(4-(2-(N-methylcarbamoyl)-4-pyridyloxy)-2-chlorophenyl) urea] |
| < 10 | CNC(=O)c1cc(Oc2ccc(NC(=O)Nc3ccc(Cl)c(C(F)(F)F)c3)cc2)ccn1 [N-(4-chloro-3-(trifluoromethyl)phenyl)-N′-(4-(2-(N-methylcarbamoyl)-4-pyridyloxy)phenyl) urea] |
| < 10 | CNC(=O)c1cc(Oc2ccc(NC(=O)Nc3ccc(F)c(C(F)(F)F)c3)c(F)c2)ccn1 [N-(4-fluoro-3-(trifluoromethyl)phenyl)-N′-(4-(2-(N-methylcarbamoyl)-4-pyridyloxy)-2-fluorophenyl) urea] |
| < 10 | CNC(=O)c1cc(Oc2ccc(NC(=O)Nc3ccc(Br)c(C(F)(F)F)c3)c(F)c2)ccn1 [N-(4-bromo-3-(trifluoromethyl)phenyl)-N′-(4-(2-(N-methylcarbamoyl)-4-pyridyloxy)-2-fluorophenyl) urea] |
| < 10 | CNC(=O)c1cc(Oc2ccc(NC(=O)Nc3ccc(Br)c(C(F)(F)F)c3)cc2)ccn1 [N-(4-bromo-3-(trifluoromethyl)phenyl)-N′-(4-(2-(N-methylcarbamoyl)-4-pyridyloxy)phenyl) urea] |
| < 10 | NC(=O)c1cc(Oc2ccc(NC(=O)Nc3ccc(Cl)c(C(F)(F)F)c3)cc2)ccn1 [N-(4-chloro-3-(trifluoromethyl)phenyl)-N′-(4-(2-carbamoyl-4-pyridyloxy)phenyl) urea] |
| < 10 | CNC(=O)c1cc(Oc2ccc(NC(=O)Nc3ccc(Br)c(C(F)(F)F)c3)c(Cl)c2)ccn1 [N-(4-bromo-3-(trifluoromethyl)phenyl)-N′-(4-(2-(N-methylcarbamoyl)-4-pyridyloxy)-2-chlorophenyl) urea] |

system: neointimal formation; experiment: not given; conditions: rat model; M. Karck et al. 2002; cited from earlier work

| SMILES | effect on neointimal formation in aortic allograft vasculopathy |
| --- | --- |
| Cc1cc2ncc(-c3ccccc3)nc2cc1C [AG-1295] | reduce neointimal formation |

system: restenosis following angioplasty; experiment: not given; conditions: G. Bilder et al. Circulation 1999; cited from earlier work

| SMILES | effect on restenosis following angioplasty |
| --- | --- |
| COc1cc2ncc(-c3ccsc3)nc2cc1OC.Cl [RPR101511A] | prevented angiographically defined restenosis following angioplasty |

target: T2, PDGFR-beta phosphorylation (Tyr-857) in Aortic SMC stimulated with PDGF BB (Homo sapiens, UniProt P09619); experiment: pPDGFR-Beta Sandwich ELISA in AoSMC Cells; format: cell-based; conditions: 1 hr compound, 10 ng/mL PDGF BB for 7 minutes, read-out: IC50 in bioassay of PDGFR inhibition in cells
T2 construct: endogenous in cells; host or cells: Aortic SMC (AoSMC), passages P3-P6
T2 sequence (P09619 33-1106): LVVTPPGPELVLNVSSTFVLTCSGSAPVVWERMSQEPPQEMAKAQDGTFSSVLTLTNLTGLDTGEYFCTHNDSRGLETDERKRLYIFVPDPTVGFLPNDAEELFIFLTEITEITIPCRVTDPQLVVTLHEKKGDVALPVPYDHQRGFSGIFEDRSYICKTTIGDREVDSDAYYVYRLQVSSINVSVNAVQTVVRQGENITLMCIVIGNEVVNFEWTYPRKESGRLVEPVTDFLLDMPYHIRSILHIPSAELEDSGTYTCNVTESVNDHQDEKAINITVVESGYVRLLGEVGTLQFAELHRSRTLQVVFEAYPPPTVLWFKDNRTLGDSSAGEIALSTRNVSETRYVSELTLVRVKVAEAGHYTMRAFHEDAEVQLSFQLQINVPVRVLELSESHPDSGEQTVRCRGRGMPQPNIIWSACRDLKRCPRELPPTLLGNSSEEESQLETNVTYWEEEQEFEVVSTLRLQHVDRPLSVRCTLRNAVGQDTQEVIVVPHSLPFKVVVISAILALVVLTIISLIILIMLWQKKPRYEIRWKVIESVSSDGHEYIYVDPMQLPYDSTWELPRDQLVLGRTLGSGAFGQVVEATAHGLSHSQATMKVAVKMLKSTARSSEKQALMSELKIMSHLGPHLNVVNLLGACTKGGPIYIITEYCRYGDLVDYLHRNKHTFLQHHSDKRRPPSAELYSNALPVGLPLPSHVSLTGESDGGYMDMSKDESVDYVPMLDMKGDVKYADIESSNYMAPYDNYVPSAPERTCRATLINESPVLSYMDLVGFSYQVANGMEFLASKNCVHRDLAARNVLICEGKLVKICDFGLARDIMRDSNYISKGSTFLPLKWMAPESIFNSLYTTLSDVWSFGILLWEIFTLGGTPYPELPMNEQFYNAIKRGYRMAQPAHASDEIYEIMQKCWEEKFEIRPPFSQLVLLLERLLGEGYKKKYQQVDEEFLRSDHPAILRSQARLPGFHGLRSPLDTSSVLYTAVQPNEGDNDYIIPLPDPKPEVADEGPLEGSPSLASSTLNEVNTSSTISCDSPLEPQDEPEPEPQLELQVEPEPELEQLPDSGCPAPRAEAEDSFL
Procedure: 100K P3-P6 Aortic SMC were plated in each well of 12-well cluster in 1000 uL volume/well of SGM-2 using standard cell culture techniques. Next day, cells were rinsed with 1000 uL D-PBS (Gibco) once, then serum starved in 500 uL SBM (smooth muscle cell basal media) with 0.1% BSA (Sigma, Cat A9576) overnight. Compounds were diluted at a dose range from (10 uM to 1 nM in 10-fold dilution steps in DMSO. Final DMSO concentration 0.1%). Remove old media by inversion into the sink quickly then add 100 ul of each dilution to corresponding well of cells for 1 hr at 37° C. Cells were then stimulated with 10 ng/mL PDGF BB ligand for 7 minutes at 37° C. The media is decanted and 150 uL of isotonic lysis buffer with protease inhibitor tablet (Complete; EDTA-free) and 0.2 mM Na vanadate is added. Cells are lysed for 15 min at 4° C. on shaker in cold room. […] Next day, beads are rinsed in 50-volumes of PBS three times and boiled in 1×LDS sample buffer (Invitrogen) for 5 minutes. Samples were run on 3-8% gradient Tris-Acetate gels (Invitrogen) and transferred onto Nitrocellulose. […] After three washes in TBS-T, membranes were incubated in Goat anti-rabbit HRP IgG (Amersham, 1:25000 dilution) for 1 hr. Three more washes followed before addition of ECL substrate. Membranes were exposed to Hyperfilm-ECL.

| IC50 [µM] | SMILES |
| --- | --- |
| < 10 | CNC(=O)c1cc(Oc2ccc(NC(=O)Nc3ccc(Cl)c(C(F)(F)F)c3)c(Cl)c2)ccn1 [N-(4-chloro-3-(trifluoromethyl)phenyl)-N′-(4-(2-(N-methylcarbamoyl)-4-pyridyloxy)-2-chlorophenyl) urea] |
